From patent US5665760A, “Lyophilized thioxanthenone antitumor agents” (priority 1995, dated 1997)

How the values were obtained:
Type in all cases: in vivo
Mammary 16/C = experiment: antitumor activity in mice against Mammary 16/C
Description: (§1) Representative examples of the invention were tested for antitumor activity in mice according to the following procedure:
(§2) The animals were pooled, implanted subcutaneously with 30 to 60 mg tumor fragments by 12-gauge trocar, and again pooled before unselective distribution to the various treatment and control groups. For early-stage treatment, chemotherapy was started within 1 to 5 days after tumor implantation while the number of cells was relatively small (10^7 to 10^8 cells). For advanced-stage treatment, chemotherapy was delayed until the tumor became relatively large (200 to 300 mg in size). A 300-mg tumor contains approximately 3×10^8 total cells. […] Tumors were measured with a caliper weekly (or twice weekly for the more rapidly growing tumors). Mice were sacrificed when their tumors reached 1500 mg (i.e., before they can cause the animal discomfort). Tumor weights were estimated from two-dimensional measurements.
(§3) The treatment and control groups were measured when the control group tumors reached approximately 700 to 1200 mg in size (Median of Group). The median tumor weight of each group was determined (including zeros). […] A T/C value <10% is considered to indicate highly significant antitumor activity.

Colon #51 = experiment: antitumor activity in mice against Colon #51; conditions: 3 hr infusion days 3, 7; for Tumor Free: 50 days of observation
Description: as §1
(§4) The animals were pooled, implanted subcutaneously with 30 to 60 mg tumor fragments by 12-gauge trocar, and again pooled before unselective distribution to the various treatment and control groups. For early-stage treatment, chemotherapy was started within 1 to 5 days after tumor implantation while the number of cells was relatively small (10^7 to 10^8 cells). For advanced-stage treatment, chemotherapy was delayed until the tumor became relatively large (200 to 300 mg in size). A 300-mg tumor contains approximately 3×10^8 total cells. Tumors within a given advanced-stage trial were within a 2.5-fold size range for 90% of the animals. Tumors were measured with a caliper weekly (or twice weekly for the more rapidly growing tumors). Mice were sacrificed when their tumors reached 1500 mg (i.e., before they can cause the animal discomfort). Tumor weights were estimated from two-dimensional measurements.
(§5) The treatment and control groups were measured when the control group tumors reached approximately 700 to 1200 mg in size (Median of Group). The median tumor weight of each group was determined (including zeros). The T/C value (weight of treated tumors over the weight of control tumors) in percent is an indication of antitumor effectiveness: A T/C equal to or less than 42% is considered significant antitumor activity by the Drug Evaluation Branch of the Division of Cancer Treatment (NCl). A T/C value <10% is considered to indicate highly significant antitumor activity. A body weight loss nadir (mean of group) of greater than 20% or greater than 20% drug-deaths is considered to indicate an excessively toxic dosage.

colon adenocarcinoma #38 = experiment: antitumor activity in mice against colon adenocarcinoma #38
Description: as §1, §2, §3
(§6) The results are shown in Table I for pancreatic ductal adenocarcinoma #03 and in Table 2 for colon adenocarcinoma #38.

[1] = tested on: Human Adeno Squamous Lung #125; experiment: antitumor activity in mice against Human Adeno Squamous Lung #125; conditions: 16 hr infusion days 7, 20
Mammary 16/C/Adr = experiment: antitumor activity in mice against Mammary 16/C/Adr (adriamycin resistant); conditions: 960 mg/kg total, 3 hr infusion days 1, 4
Description: as §1, §4, §5

[2] = tested on: pancreatic ductal adenocarcinoma #03; experiment: antitumor activity in mice against pancreatic ductal adenocarcinoma #03 (Panc 03); conditions: for Weight Loss / Drug Deaths: Table 1, total doses as in E1; for Weight Loss: average body weight 25 g
Description: as §1, §2, §3, §6

Panc 02 = experiment: antitumor activity in mice against Panc 02; conditions: i.v. bolus days 1-4; for Tumor Free: 28 days of observation
Description: as §1, §4, §5

Colon 51/A = experiment: antitumor activity in mice against Colon 51/A; conditions: i.v. bolus days 3-6, 9, 11
Description: as §1, §2, §3

[3] = 454 mg/kg total, 4 hr infusion days 1, 4
[4] = 720 mg/kg total, 4 hr infusion days 1, 4
[5] = 600 mg/kg total, 4 hr infusion days 6, 13
[6] = 960 mg/kg total, 4 hr infusion days 6, 13
[7] = Table 2, i.v., total dose mg/kg by Example: 2:600, 5:960, 6:132, 7:840, 16(a):1000, 18(e):180
[8] = 51 mg/kg total, i.v. bolus days 1-4
[9] = 82 mg/kg total, i.v. bolus days 1-4
[10] = 51 mg/kg total, i.v. bolus days 6-9
[11] = 82 mg/kg total, i.v. bolus days 6-9
[12] = Table 2, i.v., total dose mg/kg by Example: 6:82, 16(a):690, 18(e):120
[13] = 79 mg/kg total, i.v. bolus days 3-4, 6-14
[14] = 124 mg/kg total, i.v. bolus days 3-4, 6-14

CCN(CC)CCNc1ccc(CNC)c2sc3ccccc3c(=O)c12 [Example 5, 1-[[2-(Diethylamino)ethyl]amino]-4-[(methylamino)-methyl]thioxanthen-9-one]
T/C Value (Mammary 16/C; [3]): 16% | Wt. Loss at Nadir (Mammary 16/C; [3]): -1.2 g/mouse | Tumor Free (Mammary 16/C; 454 mg/kg total, 4 hr infusion days 1, 4, 13 days of observation): 0/7 | T/C Value (Mammary 16/C; [4]): 18% | Wt. Loss at Nadir (Mammary 16/C; [4]): -2.0 g/mouse | Tumor Free (Mammary 16/C; 720 mg/kg total, 4 hr infusion days 1, 4, 13 days of observation): 0/7 | T/C Value (Colon #51; 454 mg/kg total): 12% | Wt. Loss at Nadir (Colon #51; 454 mg/kg total): -2.8 g/mouse | Tumor Free (Colon #51; 454 mg/kg total): 0/7 | T/C Value (Colon #51; 720 mg/kg total): 8% | Wt. Loss at Nadir (Colon #51; 720 mg/kg total): -1.1 g/mouse | Tumor Free (Colon #51; 720 mg/kg total): 0/5 | activity against colon adenocarcinoma #38 (colon adenocarcinoma #38; 300 mg/kg p.o.): active | T/C Value (colon adenocarcinoma #38; 477 mg/kg total, 3-15 bolus): 9% | Wt. Loss at Nadir (colon adenocarcinoma #38; 477 mg/kg total, 3-15 bolus): -2.8 g/mouse | Tumor Free (colon adenocarcinoma #38; 477 mg/kg total, 3-15 bolus, 100 days of observation): 0/5 | T/C Value (colon adenocarcinoma #38; [5]): 26% | Wt. Loss at Nadir (colon adenocarcinoma #38; [5]): -2.0 g/mouse | Tumor Free (colon adenocarcinoma #38; 600 mg/kg total, 4 hr infusion days 6, 13, 20 days of observation): 0/7 | Tumor Free (colon adenocarcinoma #38; 600 mg/kg total, 4 hr infusion days 6, 13, 100 days of observation): 0/7 | T/C Value (colon adenocarcinoma #38; 732 mg/kg total, 3-15 bolus): 0% | Wt. Loss at Nadir (colon adenocarcinoma #38; 732 mg/kg total, 3-15 bolus): -2.0 g/mouse | Tumor Free (colon adenocarcinoma #38; 732 mg/kg total, 3-15 bolus, 100 days of observation): 1/5 | T/C Value (colon adenocarcinoma #38; [6]): 11% | Wt. Loss at Nadir (colon adenocarcinoma #38; [6]): -2.9 g/mouse | Tumor Free (colon adenocarcinoma #38; 960 mg/kg total, 4 hr infusion days 6, 13, 20 days of observation): 2/7 | Tumor Free (colon adenocarcinoma #38; 960 mg/kg total, 4 hr infusion days 6, 13, 100 days of observation): 1/7 | Drug Deaths (colon adenocarcinoma #38; [7]): 0 | T/C (colon adenocarcinoma #38; iv): 11% | Weight Loss (colon adenocarcinoma #38; mouse, in vivo, iv): 2.9 g | T/C Value ([1]; 600 mg/kg total): 15% | Wt. Loss at Nadir ([1]; 600 mg/kg total): -0.4 g/mouse | Tumor Free ([1]; 600 mg/kg total, 33 days of observation): 0/5 | Tumor Free ([1]; 600 mg/kg total, 132 days of observation): 0/5 | T/C Value ([1]; 960 mg/kg total): 16% | Wt. Loss at Nadir ([1]; 960 mg/kg total): -0.4 g/mouse | Tumor Free ([1]; 960 mg/kg total, 33 days of observation): 1/4 | Tumor Free ([1]; 960 mg/kg total, 132 days of observation): 0/4 | T/C Value (Mammary 16/C/Adr): 23% | Wt. Loss at Nadir (Mammary 16/C/Adr): -2.8 g/mouse | T/C [2]: 0% | T/C Value ([2]; 222 mg/kg total, 3 hr infusion): 0% | Wt. Loss at Nadir ([2]; 222 mg/kg total, 3 hr infusion): -1.6 g/mouse | Tumor Free ([2]; 222 mg/kg total, 3 hr infusion, 108 days of observation): 1/4 | Weight Loss [2]: 1.6 g | Drug Deaths [2]: 0

CCN(CC)CCNc1ccc(CNS(C)(=O)=O)c2sc3ccccc3c(=O)c12 [Example 6, N-[[1-[[2-(Diethylamino)ethyl]amino]-9-oxothioxanthen4-yl]methyl]methanesulfonamide]
T/C Value (Mammary 16/C; [8]): 13% | Wt. Loss at Nadir (Mammary 16/C; [8]): -1.2 g/mouse | Tumor Free (Mammary 16/C; 51 mg/kg total, i.v. bolus days 1-4, 23 days of observation): 0/5 | T/C Value (Mammary 16/C; [9]): 6% | Wt. Loss at Nadir (Mammary 16/C; [9]): -3.0 g/mouse | Tumor Free (Mammary 16/C; 82 mg/kg total, i.v. bolus days 1-4, 23 days of observation): 0/5 | T/C Value (colon adenocarcinoma #38; [10]): 18% | Wt. Loss at Nadir (colon adenocarcinoma #38; [10]): -1.2 g/mouse | T/C Value (colon adenocarcinoma #38; [11]): 1% | Wt. Loss at Nadir (colon adenocarcinoma #38; [11]): -1.7 g/mouse | Drug Deaths (colon adenocarcinoma #38; [7]): 3/7 | Drug Deaths (colon adenocarcinoma #38; [12]): 1/7 | Weight Loss (colon adenocarcinoma #38; [12]): 1.7 g | Weight Loss (colon adenocarcinoma #38; mouse, in vivo, iv): 5.0 g | T/C Value (Panc 02; 51 mg/kg total): 42% | Wt. Loss at Nadir (Panc 02; 51 mg/kg total): -1.2 g/mouse | Tumor Free (Panc 02; 51 mg/kg total): 0/5 | T/C Value (Panc 02; 82 mg/kg total): 23% | Wt. Loss at Nadir (Panc 02; 82 mg/kg total): -2.0 g/mouse | Tumor Free (Panc 02; 82 mg/kg total): 0/5 | T/C Value (Colon 51/A; 66 mg/kg total): 28% | Wt. Loss at Nadir (Colon 51/A; 66 mg/kg total): -2.3 g/mouse | T/C Value (Colon 51/A; 96 mg/kg total): 14% | Wt. Loss at Nadir (Colon 51/A; 96 mg/kg total): -3.0 g/mouse | T/C Value [2, 13]: 0% | Wt. Loss at Nadir [2, 13]: -1.0 g/mouse | Tumor Free ([2]; 79 mg/kg total, i.v. bolus days 3-4, 6-14, 245 days of observation): 1/5 | T/C Value [2, 14]: 0% | Wt. Loss at Nadir [2, 14]: -1.6 g/mouse | Tumor Free ([2]; 124 mg/kg total, i.v. bolus days 3-4, 6-14, 245 days of observation): 3/5 | Weight Loss [2]: 1.6 g | Drug Deaths [2]: 0
